Assay results from patent US3963706A, “Sulphamoylphenyl-imidazolidinones” (Ed. Geistlich Sohne A.G. fur Chemische Industrie, priority 1972, dated 1976).

Tested on: Grand Mal
Test: Electro shock test, rat
Assay type: in vivo
Settings: not given
Text: (§1) In general, the majority of the available antiepileptic drugs are active against either Grand Mal or Petit Mal epilepsy but not against both forms.
(§2) As mentioned above, the compounds according to the present invention show interesting activity against both Grand Mal and Petit Mal forms of epilepsy. This activity is indicated respectively by the electro shock test and the Cardiazol shock test.
`NS(=O)(=O)c1ccc(N2CN(c3ccccc3)CC2=O)c(F)c1` [Example 2, 1-Phenyl-3-(2-fluoro-4-sulphamoylphenyl)-imidazolidin-4-one] gave an ED50 of 10 mg/kg.
Compound `NS(=O)(=O)c1ccc(N2CN(c3ccccc3)CC2=O)c(Cl)c1` [Example 3, 1-Phenyl-3-(2-Chloro-4-sulphamoylphenyl)-imidazolidin-4-one] has an ED50 of 5 mg/kg.
Compound `NS(=O)(=O)c1ccc(N2CN(c3ccccc3)CC2=O)c(Br)c1` [Example 5, 1-Phenyl-3-(2-bromo-4-sulphamoylphenyl)imidazolidin-4-one] has an ED50 of 5 to 10 mg/kg.
In the case of `NS(=O)(=O)c1ccc(N2C(=O)CN(c3ccccc3)C2=O)c(Cl)c1` [Example 8, 1-Phenyl-3-(2-chloro-4-sulphamoylphenyl)-hydantoin], the ED50 is reported as 10 mg/kg.
With `CC1C(=O)N(c2ccc(S(N)(=O)=O)cc2Cl)CN1c1ccccc1` (stereo not drawn) [Example 18, 5-Methyl-1-phenyl-3-(2-chloro-4-sulphamoylphenyl)-imidazolidin-4-one] the ED50 was 10 mg/kg.
In the case of `NS(=O)(=O)c1ccc(N2CN(C3CCCCC3)CC2=O)c(Cl)c1` [Example 19, 1-Cyclohexyl-3-(2-chloro-4-sulphamoylphenyl)-imidazolidin-4-one], the ED50 is reported as 25 mg/kg.

Tested on: Grand Mal
Test: Electro shock test, mouse
Assay type: in vivo
Settings: not given
Text: as §1, §2
`NS(=O)(=O)c1ccc(N2CN(c3ccccc3)CC2=O)c(F)c1` [Example 2, 1-Phenyl-3-(2-fluoro-4-sulphamoylphenyl)-imidazolidin-4-one] gave an ED50 of 10 mg/kg.
Work on `NS(=O)(=O)c1ccc(N2CN(c3ccccc3)CC2=O)c(Cl)c1` [Example 3, 1-Phenyl-3-(2-Chloro-4-sulphamoylphenyl)-imidazolidin-4-one] yielded an ED50 of 1 mg/kg.
Compound `NS(=O)(=O)c1ccc(N2CN(c3ccccc3)CC2=O)c(Br)c1` [Example 5, 1-Phenyl-3-(2-bromo-4-sulphamoylphenyl)imidazolidin-4-one] has an ED50 of 5 mg/kg.
For `NS(=O)(=O)c1ccc(N2C(=O)CN(c3ccccc3)C2=O)c(Cl)c1` [Example 8, 1-Phenyl-3-(2-chloro-4-sulphamoylphenyl)-hydantoin], the ED50 was 5 mg/kg.
`NS(=O)(=O)c1ccc(N2CN(C3CCCCC3)CC2=O)c(Cl)c1` [Example 19, 1-Cyclohexyl-3-(2-chloro-4-sulphamoylphenyl)-imidazolidin-4-one] showed an ED50 of 10 mg/kg.

Tested on: Petit Mal
Test: Cardiazol shock test
Assay type: in vivo
Settings: species not given
Text: as §1, §2
With `NS(=O)(=O)c1ccc(N2CN(c3ccccc3)CC2=O)c(F)c1` [Example 2, 1-Phenyl-3-(2-fluoro-4-sulphamoylphenyl)-imidazolidin-4-one] the ED50 was 50 mg/kg.
For `NS(=O)(=O)c1ccc(N2CN(c3ccccc3)CC2=O)c(Cl)c1` [Example 3, 1-Phenyl-3-(2-Chloro-4-sulphamoylphenyl)-imidazolidin-4-one], the ED50 was 50 mg/kg.
Compound `NS(=O)(=O)c1ccc(N2CN(c3ccccc3)CC2=O)c(Br)c1` [Example 5, 1-Phenyl-3-(2-bromo-4-sulphamoylphenyl)imidazolidin-4-one] has an ED50 of 50 mg/kg.
`NS(=O)(=O)c1ccc(N2C(=O)CN(c3ccccc3)C2=O)c(Cl)c1` [Example 8, 1-Phenyl-3-(2-chloro-4-sulphamoylphenyl)-hydantoin] showed an ED50 of 100 mg/kg.
With `CC1C(=O)N(c2ccc(S(N)(=O)=O)cc2Cl)CN1c1ccccc1` (stereo not drawn) [Example 18, 5-Methyl-1-phenyl-3-(2-chloro-4-sulphamoylphenyl)-imidazolidin-4-one] the ED50 was 50 mg/kg.
With `NS(=O)(=O)c1ccc(N2CN(C3CCCCC3)CC2=O)c(Cl)c1` [Example 19, 1-Cyclohexyl-3-(2-chloro-4-sulphamoylphenyl)-imidazolidin-4-one] the ED50 was 200 mg/kg.

Tested on: not given
Test: not given
Assay type: in vivo
Settings: up to 500 mg/kg
Text: It will be noted that the ratio of ED50 /LD50 for the compounds according to the invention is particularly favourable.
With `NS(=O)(=O)c1ccc(N2CN(c3ccccc3)CC2=O)c(Cl)c1` [Example 3, 1-Phenyl-3-(2-Chloro-4-sulphamoylphenyl)-imidazolidin-4-one] the sedative activity was “virtually no sedative activity”.
